{
  "source": "paper PMC7226417",
  "about": "“Utilizing Genome-Wide mRNA Profiling to Identify the Cytotoxic Chemotherapeutic Mechanism of Triazoloacridone C-1305 as Direct Microtubule Stabilization” (Cancers, 2020)",
  "system": "T1, tubulin (α/β tubulin dimer)",
  "T1 construct": "with α- and β-tubulin heterodimer",
  "test": "in vitro tubulin polymerization assay, turbidity at […] nm (stabilization of polymerization)",
  "assay_type": "biochemical",
  "data": [
    {"smiles": "CN(C)CCCNc1ccc2nnn3c4ccc(O)cc4c(=O)c1c23", "note": "[C-1305, 5-{[3-(Dimethylamino)propyl]amino}-8-hydroxy-6H-[1,2,3]triazolo[4,5,1-de]acridin-6-one]", "values": [
      {"measurement": "EC50", "result": 2.74, "unit": "µM"}
    ]}
  ]
}
